Data as given in patent publication US20100321430A1, “INK COMPOSITION FOR INK JET RECORDING” (priority 2009, published 2010).

Test: Solubility of 1,2-octanediol in aqueous solution containing an alcohol solvent
Format: physicochemical
Conditions: for ability to dissolve 1,2-octanediol compared with HED: aqueous solution containing 10% by weight 1,2-octanediol and 10% by weight 1,2-hexanediol, FIGURE
Experimental: An aqueous solution containing 10% by weight of 1,2-octanediol, which is a water-insoluble alkanediol, was prepared. […] Therefore, the aqueous solution was cloudy.
Five alcohol solvents were each added to 10 g of the aqueous solution until the aqueous solution became transparent. The five alcohol solvents were 1,6-hexanediol (hereinafter referred to as 1,6-HED), 3-methyl-1,5-pentanediol (hereinafter referred to as 3 MPED), 1,5-pentanediol (hereinafter referred to as 1,5-PED), 1,2-hexanediol (hereinafter referred to as HED), and 2,2′-dimethylpropanediol (hereinafter referred to as 2 MPRD).
Another aqueous solution containing 10% by weight of 1,2-octanediol and 10% by weight of 1,2-hexanediol, which is a water-soluble alkanediol, was prepared. The five alcohol solvents were added to this aqueous solution in the same manner as described above until this aqueous solution became transparent.

SMILES: CCCCCCC(O)CO (centres unmarked) [1,2-octanediol]
- solubility in water (aqueous solution containing 10% by weight): not completely dissolved

SMILES: OCCCCCO [1,5-PED, 1,5-pentanediol]
- ability to dissolve 1,2-octanediol compared with HED: more capable of dissolving 1,2-octanediol

SMILES: OCCCCCCO [1,6-HED, 1,6-hexanediol]
- ability to dissolve 1,2-octanediol compared with HED: more capable of dissolving 1,2-octanediol

SMILES: CC(C)(CO)CO [2 MPRD, 2,2′-dimethylpropanediol]
- ability to dissolve 1,2-octanediol compared with HED: more capable of dissolving 1,2-octanediol

SMILES: CC(CCO)CCO [3 MPED, 3-methyl-1,5-pentanediol]
- ability to dissolve 1,2-octanediol compared with HED: more capable of dissolving 1,2-octanediol
